{
  "source": "patent EP0430983B1",
  "about": "“USE OF CASTANOSPERMINE AS AN ANTI-INFLAMMATORY AND IMMUNOSUPPRESSANT AGENT” (THE AUSTRALIAN NATIONAL UNIVERSITY, priority 1988, dated 1990)",
  "key": {"passive EAE": {"system": "passive EAE", "test": "Passively induced experimental allergic encephalomyelitis (passive EAE), clinical grading and CNS histology", "format": "in vivo, Lewis (RT-1') rats", "settings": "for protection against clinical EAE: osmotic pump implanted at time of cell transfer; for mean clinical score: score out of possible 5 ± standard errors"}, "[1]": {"test": "Preliminary toxicity studies", "format": "in vivo", "settings": "500 mg/kg/day for 7 days; animals observed for a 6 week period after treatment; data not shown"}, "[2]": {"system": "passively induced adjuvant arthritis", "test": "Passively induced adjuvant arthritis, change in foot volume", "format": "in vivo, (DAxLewis)F₁ rats", "settings": "for % Δ in foot volume: 350 mg/kg/day s.c. osmotic pump from cell transfer, individual rats, 350 mg/kg/day", "protocol": "(DAxLewis)F₁ rats were immunized with 3mg M.butyricum in light mineral oil injected intradermally in both hind feet. Ten days later spleens were removed and made into a single cell suspension in RPMI containing 5% fetal calf serum, 200mM L Glutamine, 5 x 10⁻ ⁵M 2-ME, penicillin and streptomycin. Cells were adjusted to 2 x 10⁶ cells/ml, and cultured in 50ml media in 75mm culture flasks. ConA was added at 2µg/ml and cultures incubated for 72hrs at 37°C in an atmosphere of 10% CO₂, 7% O₂ and the balance N₂. Cells were then washed and transferred at 50 x 10⁶ or 60 x 10⁶ cells/rat i.v. into 10 weeks old male (DAxLewis)F₁.\nCastanospermine was put in osmotic pumps (Alza Corp.) which delivered 5µl/hr for 14 days. Pumps were implanted subcutaneously at the time of cell transfer. Rats received 350mg/kg/day of castanospermine.\nHind feet of rats were measured in 4 diameters beginning the day of cell transfer. The measurements are averaged and expressed as % change in volume of feet.\nTwo experiments have been performed both treating rats with 350mg/kg/day castanospermine beginning the day of cell transfer."}, "pancreatic islets": {"system": "pancreatic islets", "test": "Transplantation of allogeneic pancreatic islets, graft rejection by blood glucose", "format": "in vivo, CBA mice", "protocol": "Donor mice were Balb/c (H2^d) and recipients were CBA (H2^k). Donor pancreatic islets were prepared using standard techniques. Approximately 400 islets were isolated from 10 donor mice. These freshly isolated islets, in groups of 50, were placed into CBA blood clots and these were placed under the kidney capsule of CBA mice which were diabetic (blood glucose 20mM/litre).\nTwo recipients were implanted (subcutaneously) with miniosmotic pumps containing CS at the time of islet transplantation. These pumps delivered CS at a dose of 300 mg/kg/mouse/day for a period of 14 days. Two control mice were sham operated.\nBlood samples (10µl) were taken daily and assayed for blood glucose using an automatic analyser (Beckman Glucose Analyzer 2).\nAll transplant recipients became normoglycaemic within 24 hours indicating successful transplantation of all of the grafts. Rejection of grafts was assumed to occur when animals became hyperglycaemic. Control animals rejected on days 9 and 12."}, "renal allografts": {"system": "renal allografts", "test": "Renal allograft survival", "format": "in vivo, DA rats", "settings": "pump; for No. of rats surviving more than 14 days: DA rats with (DA/LEW) renal allografts; for No. of days of Survival: the rat surviving more than 14 days", "description": "One kidney from each rat was replaced with a donor kidney, after which the remaining original rat kidney was removed. The results are set out in Table 5 below: Table 5"}, "[3]": {"system": "Delayed hypersensitivity (DTH)", "test": "Delayed hypersensitivity (DTH) to sheep red blood cells, foot swelling", "format": "in vivo, C57BL mice", "settings": "CS ip every 4 hours from footpad testing, total 300 mg/kg/mouse over 24 hrs; 5 mice/group; control group 33%", "protocol": "C57BL mice were given 10⁸ sheep red blood cells (SRBC) intravenously. Five days later 10⁵ SRBC in a volume of […] was injected into the left hind footpad and […] saline into the right. Castanospermine was given every 4 hours ip beginning at the time of footpad testing. Total dose of CS over 24 hrs was 300 mg/kg/mouse. Control mice were given saline every 4 hours, and 5 mice/group were used in both test and control groups."}, "[4]": {"settings": "Table 1, CS 100 mg/kg/day, s.c. miniosmotic pump at time of cell transfer"}, "[5]": {"settings": "Table 1, CS 200 mg/kg/day, s.c. miniosmotic pump at time of cell transfer"}},
  "note": "Where “and” joins values, the source holds several entries; their conditions need not be identical. Identical values can stand only once.",
  "data": [
    {"smiles": "O[C@H]1[C@H](O)[C@@H](O)CN2CC[C@H](O)[C@H]12", "note": "[CS, Castanospermine]", "values": [
      {"measurement": "protection against clinical EAE", "setting": "passive EAE; 100 mg/kg/day", "result": "no protective effect"},
      {"measurement": "protection against clinical EAE", "setting": "passive EAE; 200 mg/kg/day", "result": "only partial protection"},
      {"measurement": "number of inflammatory lesions in CNS tissues (histology)", "setting": "passive EAE; 300 mg/kg/day from cell transfer, rats killed at day 8, compared with untreated rats", "result": "approximately the same number of inflammatory lesions as untreated rats"},
      {"measurement": "protection against clinical EAE", "setting": "passive EAE; 300 mg/kg/day", "result": "complete protection"},
      {"measurement": "mean day of onset", "setting": "passive EAE; [4]", "result": "4±0"},
      {"measurement": "mean clinical score", "setting": "passive EAE; [4]", "result": "4.0±0"},
      {"measurement": "animals with EAE", "setting": "passive EAE; Table 1, CS 100 mg/kg/day, s.c. miniosmotic pump placed at time of cell transfer", "result": "4/4"},
      {"measurement": "mean day of onset", "setting": "passive EAE; [5]", "result": "5±0"},
      {"measurement": "mean clinical score", "setting": "passive EAE; [5]", "result": "2.0±0"},
      {"measurement": "animals with EAE", "setting": "passive EAE; Table 1, CS 200 mg/kg/day, s.c. miniosmotic pump placed at time of cell transfer", "result": "4/4"},
      {"measurement": "animals with EAE", "setting": "passive EAE; Table 1, CS 300 mg/kg/day, s.c. miniosmotic pump placed at time of cell transfer", "result": "0/4"},
      {"measurement": "animals with EAE", "setting": "passive EAE; Table 2, convalescent rats (compromised blood-brain barrier), CS 300 mg/kg/day, s.c. miniosmotic pump at time of secondary cell transfer", "result": "0/4"},
      {"measurement": "animals with EAE", "setting": "passive EAE; Table 2, naive rats, CS 300 mg/kg/day, s.c. miniosmotic pump at time of cell transfer", "result": "0/4"},
      {"measurement": "animals with EAE", "setting": "passive EAE; Table 3, experiment 1, CS 150 mg/kg i.p., 12 hourly, initiated on day 4 (before clinical signs), for 3 days", "result": "0/3"},
      {"measurement": "animals with EAE", "setting": "passive EAE; Table 3, experiment 2, CS 150 mg/kg i.p., 12 hourly, initiated on day 4 (after onset of signs)", "result": "3/3"},
      {"measurement": "mean clinical score", "setting": "passive EAE; Table 3, experiment 2, CS 150 mg/kg i.p., 12 hourly, initiated on day 4", "result": "4±0"},
      {"measurement": "animals with EAE", "setting": "passive EAE; Table 3, experiment 3, CS 300 mg/kg osmotic pump, initiated on day 4 (after onset of signs)", "result": "5/5"},
      {"measurement": "mean clinical score", "setting": "passive EAE; Table 3, experiment 3, CS 300 mg/kg osmotic pump, initiated on day 4", "result": "4±0"},
      {"measurement": "clinical signs of EAE with delayed treatment", "setting": "passive EAE; exp.1, two 150 mg/kg i.p. injections daily from 4 days after cell transfer for 3 days, signs in untreated animals not apparent until day 6", "result": "did not develop clinical signs of EAE"},
      {"measurement": "clinical signs of EAE with delayed treatment", "setting": "passive EAE; exp.3, osmotic pumps implanted on day 4 after cell transfer, all animals showed mild clinical signs on day 4", "result": "failed to modify subsequent disease expression"},
      {"measurement": "second episode of passively induced EAE", "setting": "passive EAE; rats recovered from one episode, pump delivering 300 mg/kg/day on the day of secondary transfer", "result": "did not develop a second episode of the disease"},
      {"measurement": "toxic effect", "setting": "[1]", "result": "no apparent toxic effect"},
      {"measurement": "% Δ in foot volume", "setting": "[2]; Exp 1, 50 x 10^6 cells, Day 7", "result": "-5% and 5% and 0% and +12%"},
      {"measurement": "% Δ in foot volume", "setting": "[2]; Exp 1, 50 x 10^6 cells, Day 14", "result": "-1% and 0% and +9% and +4%"},
      {"measurement": "inflammation of feet", "setting": "[2]; Exp 1 and Exp 2, 350 mg/kg/day from cell transfer", "result": "In no case did any of the CS treated rats show inflammation"},
      {"measurement": "% Δ in foot volume", "setting": "[2]; Exp 2, 60 x 10^6 cells, Day 7", "result": "-5% and -7% and -3% and +3%"},
      {"measurement": "% Δ in foot volume", "setting": "[2]; Exp 2, 60 x 10^6 cells, Day 14", "result": "-8% and -18% and -14% and -1%"},
      {"measurement": "swelling and inflammation after end of treatment", "setting": "[2]; Exp 2, pumps removed on day 15, animals followed out to day 28+", "result": "remained normal"},
      {"measurement": "day of graft rejection (hyperglycaemia)", "setting": "pancreatic islets; Balb/c islets in diabetic CBA mice, 300 mg/kg/mouse/day s.c. miniosmotic pump for 14 days, one mouse, controls rejected on days 9 and 12", "result": 19, "unit": "days"},
      {"measurement": "day of graft rejection (hyperglycaemia)", "setting": "pancreatic islets; other CS treated mouse, whose miniosmotic pump was found not to have delivered its CS payload", "result": 12, "unit": "days"},
      {"measurement": "No. of rats surviving more than 14 days", "setting": "renal allografts; 100mg/kg, 9 rats", "result": 1},
      {"measurement": "No. of days of Survival", "setting": "renal allografts; 100mg/kg", "result": 100, "unit": "days"},
      {"measurement": "No. of rats surviving more than 14 days", "setting": "renal allografts; 250mg/kg, 7 rats", "result": 1},
      {"measurement": "No. of days of Survival", "setting": "renal allografts; 250mg/kg", "result": 33, "unit": "days"},
      {"measurement": "increase in foot swelling", "setting": "[3]", "result": 11, "unit": "%"}
    ]}
  ]
}
